Laboratory results published in patent US20150065447A1, “SURVIVAL BENEFIT IN PATIENTS WITH SOLID TUMORS WITH ELEVATED C-REACTIVE PROTEIN LEVELS” (Incyte Corporation, priority 2013, published 2015).

Assays:
[1] = target: T1, human JAK1 (a.a. 837-1142) (Homo sapiens, UniProt P23458); assay: In vitro JAK Kinase Assay (HTRF), JAK1; assay type: biochemical; details: 1 mM ATP
T1 construct: human JAK1 (a.a. 837-1142); His tag (N); made in house; host or cells: insect cells (baculovirus)
Procedure: (§1) The catalytic activity of JAK1 and JAK2 was assayed by measuring the phosphorylation of a biotinylated peptide. The phosphorylated peptide was detected by homogenous time resolved fluorescence (HTRF). […] Reactions were carried out at room temperature for 1 hr and then stopped with 20 μL 45 mM EDTA, 300 nM SA-APC, 6 nM Eu-Py20 in assay buffer (Perkin Elmer, Boston, Mass.). Binding to the Europium labeled antibody took place for 40 minutes and HTRF signal was measured on a Fusion plate reader (Perkin Elmer, Boston, Mass.).

[2] = target: T2, human JAK2 (a.a. 828-1132) (Homo sapiens, UniProt O60674); assay: In vitro JAK Kinase Assay (HTRF), JAK2 (for JAK2/JAK1 ratio); assay type: biochemical; details: ratio of IC50s, 1 mM ATP
T2 construct: JAK2 (a.a. 828-1132); His tag (N); made in house; host or cells: insect cells (baculovirus)
Procedure: as §1

T2 sequence (O60674 828-1132): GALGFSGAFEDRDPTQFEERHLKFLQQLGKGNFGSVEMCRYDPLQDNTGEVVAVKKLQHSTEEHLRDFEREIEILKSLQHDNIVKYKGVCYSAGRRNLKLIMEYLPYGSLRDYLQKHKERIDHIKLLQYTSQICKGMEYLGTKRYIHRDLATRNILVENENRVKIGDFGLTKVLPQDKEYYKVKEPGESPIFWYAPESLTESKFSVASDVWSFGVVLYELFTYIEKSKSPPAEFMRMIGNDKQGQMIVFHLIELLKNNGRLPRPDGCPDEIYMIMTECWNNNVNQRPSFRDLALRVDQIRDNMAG
T1 sequence (P23458 849-1154): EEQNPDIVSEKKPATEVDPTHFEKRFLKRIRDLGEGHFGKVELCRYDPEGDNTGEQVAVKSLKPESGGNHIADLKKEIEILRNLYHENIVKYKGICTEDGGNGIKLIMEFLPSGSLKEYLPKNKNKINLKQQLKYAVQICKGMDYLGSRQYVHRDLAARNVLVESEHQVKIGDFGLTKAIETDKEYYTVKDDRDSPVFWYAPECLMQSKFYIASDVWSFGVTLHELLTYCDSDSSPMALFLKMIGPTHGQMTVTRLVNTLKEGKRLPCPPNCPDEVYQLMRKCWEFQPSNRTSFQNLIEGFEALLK

Row | SMILES | IC50 [1] [nM] | JAK2/JAK1 [2]
1 | N#CCC1(n2cc(-c3ncnc4[nH]ccc34)cn2)CN([C@H]2CC[C@@H](Oc3cc(CCO)nc(C(F)(F)F)n3)CC2)C1 [Compound 18, (l-(cis-4-{[6-(2-hydroxyethyl)-2-(trifluoromethyl)pyrimidin-4-yl]oxy}cyclohexyl)-3-[4-(7H-pyrrolo[2,3-d]pyrimidin-4-yl)-1H-pyrazol-1-yl]azetidin-3-yl}acetonitrile] | < 10 | >10
2 | CCNCc1cc(O[C@H]2CC[C@@H](N3CC(CC#N)(n4cc(-c5ncnc6[nH]ccc56)cn4)C3)CC2)nc(C(F)(F)F)c1 [Compound 19, {l-(cis-4-{[4-[(ethylamino)methyl]-6-(trifluoromethyl)pyridin-2-yl]oxy}cyclohexyl)-3-[4-(7H-pyrrolo[2,3-d]pyrimidin-4-yl)-1H-pyrazol-1-yl]azetidin-3-yl}acetonitrile] | < 10 | >10
3 | CC(C)(O)c1cc(O[C@H]2CC[C@@H](N3CC(CC#N)(n4cc(-c5ncnc6[nH]ccc56)cn4)C3)CC2)nc(C(F)(F)F)c1 [Compound 20, {1-(cis-4-{[4-(1-hydroxy-1-methylethyl)-6-(trifluoromethyl)pyridin-2-yl]oxy}cyclohexyl)-3-[4-(7H-pyrrolo[2,3-d]pyrimidin-4-yl)-1H-pyrazol-1-yl]azetidin-3-yl}acetonitrile] | < 10 | >10
4 | N#CCC1(n2cc(-c3ncnc4[nH]ccc34)cn2)CN([C@H]2CC[C@@H](Oc3cc(CN4CC[C@@H](O)C4)cc(C(F)(F)F)n3)CC2)C1 [Compound 21, {1-(cis-4-{[4-{[(3R)-3-hydroxypyrrolidin-1-yl]methyl}-6-(trifluoromethyl)pyridin-2-yl]oxy}cyclohexyl)-3-[4-(7H-pyrrolo[2,3-d]pyrimidin-4-yl)-1H-pyrazol-1-yl]azetidin-3-yl}acetonitrile] | < 10 | >10
5 | N#CCC1(n2cc(-c3ncnc4[nH]ccc34)cn2)CN([C@H]2CC[C@@H](Oc3cc(CN4CC[C@H](O)C4)cc(C(F)(F)F)n3)CC2)C1 [Compound 22, {1-(cis-4-{[4-{[(3S)-3-hydroxypyrrolidin-1-yl]methyl}-6-(trifluoromethyl)pyridin-2-yl]oxy}cyclohexyl)-3-[4-(7H-pyrrolo[2,3-d]pyrimidin-4-yl)-1H-pyrazol-1-yl]azetidin-3-yl}acetonitrile] | < 10 | >10
6 | C[C@@H](CO)NCc1cc(OC2CCN([C@H]3C[C@](CC#N)(n4cc(-c5ncnc6[nH]ccc56)cn4)C3)CC2)nc(C(F)(F)F)c1 [Compound 23, {trans-3-(4-{[4-({[(1S)-2-hydroxy-1-methylethyl]amino}methyl)-6-(trifluoromethyl)pyridin-2-yl]oxy}piperidin-1-yl)-1-[4-(7H-pyrrolo[2,3-d]pyrimidin-4-yl)-1H-pyrazol-1-yl]cyclobutyl}acetonitrile] | < 10 | >10
7 | C[C@@H](O)CNCc1cc(OC2CCN([C@H]3C[C@](CC#N)(n4cc(-c5ncnc6[nH]ccc56)cn4)C3)CC2)nc(C(F)(F)F)c1 [Compound 24, {trans-3-(4-{[4-({[(2R)-2-hydroxypropyl]amino}methyl)-6-(trifluoromethyl)pyridin-2-yl]oxy}piperidin-1-yl)-1-[4-(7H-pyrrolo[2,3-d]pyrimidin-4-yl)-1H-pyrazol-1-yl]cyclobutyl}acetonitrile] | < 10 | >10
8 | C[C@H](O)CNCc1cc(OC2CCN([C@H]3C[C@](CC#N)(n4cc(-c5ncnc6[nH]ccc56)cn4)C3)CC2)nc(C(F)(F)F)c1 [Compound 25, {trans-3-(4-{[4-({[(2S)-2-hydroxypropyl]amino}methyl)-6-(trifluoromethyl)pyridin-2-yl]oxy}piperidin-1-yl)-1-[4-(7H-pyrrolo[2,3-d]pyrimidin-4-yl)-1H-pyrazol-1-yl]cyclobutyl}acetonitrile] | < 10 | >10
9 | N#CC[C@]1(n2cc(-c3ncnc4[nH]ccc34)cn2)C[C@H](N2CCC(Oc3cc(CCO)cc(C(F)(F)F)n3)CC2)C1 [Compound 26, {trans-3-(4-{[4-(2-hydroxyethyl)-6-(trifluoromethyl)pyridin-2-yl]oxy}piperidin-1-yl)-1-[4-(7H-pyrrolo[2,3-d]pyrimidin-4-yl)-1H-pyrazol-1-yl]cyclobutyl}acetonitrile] | < 10 | >10
